Like-named read-outs stand apart in the source and are kept apart here.
Legend:
[1] = system: HCV replicon (HCV 1b-377-neo replicon cells); test: HCV replicon cell line and FRET assay; format: cell-based
HCV replicon [2] = test: HCV RNA detection by RT-PCR in replicon cells
HCV replicon [3] = test: Western analysis of NS3 in replicon cells; format: cell-based
Method: EC50 values were also determined by Western analysis performed according to the instructions for Chemiluminescence Immunology Kit (Cat# NEL105) Amersham, Arlington Heights, Ill. using a Molecular Dynamics Storm 860 phosphoimager and associated software. Experiments were done in duplicate. The primary and secondary antibody dilutions were at 1 to 5,000. Antisera was generated by immunizing rabbits with purified NS3 protease made from an E. Coli expression vector encoding the first 181 amino acids of HCV 1a NS3 with subsequent boosts. Bleeds were tested weekly and boosts continued until a positive signal on a control western was seen. Secondary antibody was a BioRad (#170-6515) Goat anti-Rabbit IgG HRP Conjugate (Cat# 170-6515) BioRad, Hercules, Calif. The protein samples for western analysis were from the same wells used for the FRET assay and were prepared by the addition of an equal volume of 2×SDS-PAGE buffer to the FRET assay mixture, heating and loading on a 10% gel for SDS-PAGE. Interferon alpha (Cat# I-4276) Sigma, St. Louis, Mo. (IFN-α) was obtained and stored as recommended.

[4] = system: wild-type Blast/Luciferase HCV replicon; format: cell-based, HCV 1b
[5] = system: Y2065C Blast/Luciferase HCV replicon; format: cell-based, HCV 1b
[6] = system: HCV 1b-377-neo replicon cells (Huh-7); test: Alamar blue conversion (cellular toxicity, CC50), wild-type replicon cells; format: cell-based
[7] = system: Y > H replicon cells (Huh-7); test: Alamar blue CC50 on Y > H replicon cells
[8] = system: wild-type HCV 377-neo replicon in Huh-7 cells; test: Colony formation under G418 selection, wild-type replicon RNA
[9] = system: Compound 1-r replicon cells (HCV 377-neo); test: FRET assay on selected Compound 1-r replicon cells; format: cell-based; settings: initial test
Method: HCV 377-neo replicon cells were plated in 100-mm plates with ˜25% confluence after 24 hr seeding. Compound 1 was added at the final concentrations of 5, 10 and 20 μM in the presence of G418. Wild type replicon cells in the absence of the compound were used as a control. After 5–6 weeks, both wt replicon cells and selected cells were tested for their sensitivity to Compound 1. In addition, cell lines derived from individual colonies from different concentrations of selective Compound 1 were also isolated, expanded and tested. In the initial test, approximately 60-fold resistance, judged by the FRET assay, was observed between wt replicon cells and selected replicon cells (designated as Compound 1-r replicon cells).

[10] = HCV replicon cell line, FRET assay, read-out: Replicon Inhibition Range EC50
[11] = Hepatitis C virus, HCV replicon cell line, FRET assay, read-out: Replicon Inhibition Range EC50

## C[C@H](NC(=O)OCc1ccccc1)C(=O)Nc1ccc(C2S/C(=N\c3ccc(C(F)(F)F)cc3)N(Cc3ccco3)C2=O)cc1 (stereo partly shown) [Compound 62]
[1]; [10]
  EC50: 1000 to 5000 nM

## O=C(Nc1ccc(C2S/C(=N\c3cccc(F)c3)N(Cc3ccco3)C2=O)cc1)[C@@H]1CCCN1C(=O)Cc1ccccc1 (stereo partly shown) [Compound 127]
[1]; [11]
  EC50: < 100 nM

## CC(C)(C)/N=C1\SC(c2ccc(NC(=O)[C@@H]3CCC(=O)N3C(=O)OCc3ccccc3)cc2)C(=O)N1Cc1ccccn1 (stereo partly shown) [Compound 90]
[1]; [11]
  EC50: 100 to 1000 nM

## IFN-α
HCV replicon [2]
  EC50: 5.3 units of IFN-α per milliliter
HCV replicon [3]
  EC50: 1.9 units of IFN-α per milliliter
[1]; FRET
  EC50: 2.9 units of IFN-α per milliliter

## O=C(Nc1ccc(C2S/C(=N\c3cccc(Oc4ccccc4)c3)N(Cc3ccco3)C2=O)cc1)[C@@H]1CCCN1C(=O)OCc1ccccc1 (stereo partly shown) [Compound 34]
[1]; [11]
  EC50: 100 to 1000 nM

## C[C@H](NC(=O)OCc1ccccc1)C(=O)Nc1ccc(C2S/C(=N\c3ccc(N4CCOCC4)cc3)N(Cc3ccccn3)C2=O)cc1 (stereo partly shown) [Compound 80]
[1]; [10]
  EC50: 100 to 1000 nM

## C[C@H](NC(=O)Cc1ccccc1)C(=O)Nc1ccc(C2S/C(=N\c3cccc(F)c3)N(Cc3ccco3)C2=O)cc1 (stereo partly drawn) [Compound 124, (N-{4-[2-(3-fluorophenylimino)-3-furan-2-ylmethyl-4-oxo-thiazolidin-5-yl]phenyl}-2S-(phenylacetylamino))propionamide]
[4]; 0.5 μM Compound 124
  replication of the wild-type replicon: completely inhibited
[4]; wt clone, 0.5 μM 124, 48 h
  rlu 48 h: 3237 rlu
[4]; wt clone, 0.5 μM 124, 72 h
  rlu 72 h: 3184 rlu
[5]; Y2065C replicon, 0.5 μM Compound 124
  decrease in replication: 10–15%
[5]; Y > C clone, 0.5 μM 124, 48 h
  rlu 48 h: 7186 rlu
[5]; Y > C clone, 0.5 μM 124, 72 h
  rlu 72 h: 9696 rlu
[6]
  CC50: > 5000 nM
[7]
  CC50: > 5000 nM

## C[C@H](NC(=O)OCc1ccccc1)C(=O)Nc1ccc(C2S/C(=N\c3cccc(F)c3)N(Cc3ccco3)C2=O)cc1 (stereo partly drawn) [Compound 1, (1S-(4-[2-(3-Fluorophenylimino)-3-furan-2-ylmethyl-4-oxo-thiazolidin-5-yl]-phenylcarbamoyl)ethyl)carbamic acid benzyl ester]
[8]; Wild-type RNA transfected, 2 μM Compound 1, 3 weeks G418 selection
  Number of colonies: 3
[8]; wild-type replicon RNA, 2 μM Compound 1
  reduction in colony number: 95%
[9]
  resistance between wt replicon cells and selected replicon cells: approximately 60 fold
[6]
  CC50: > 5000 nM
[7]
  CC50: > 5000 nM

## O=C(Nc1ccc(C2S/C(=N\c3ccc(N4CCOCC4)cc3)N(Cc3cccnc3)C2=O)cc1)[C@@H]1CCCN1C(=O)OCc1ccccc1 (stereo partly shown) [Compound 94]
[1]; [11]
  EC50: < 100 nM

## O=C(Nc1ccc(C2S/C(=N\c3ccc(N4CCOCC4)cc3)N(Cc3cccnc3)C2=O)cc1)[C@@H]1CCCN1C(=O)OCc1ccccc1 (stereo partly shown) [Compound 81]
[1]; [10]
  EC50: 100 to 1000 nM
[1]; Hepatitis C virus, 72 h, FRET assay, read-out: EC50 in monotherapy
  EC50: 9 to 11 nM

## C[C@H](NC(=O)OCc1ccccc1)C(=O)Nc1ccc(C2S/C(=N\c3ccc(N4CCOCC4)cc3)N(c3ccccn3)C2=O)cc1 (stereo partly shown) [Compound 93]
[1]; [11]
  EC50: 100 to 1000 nM

Source: patent US7183302B2, “Iminothiazolidinones as inhibitors of HCV replication” (priority 2002, dated 2007)
